ChEMBL document CHEMBL1909046, “DrugMatrix in vitro pharmacology data”

Experiments:
[1] = molecular target: T1, Alpha-1A adrenergic receptor (Rattus norvegicus, UniProt P43140); test: DRUGMATRIX: Alpha-1A adrenergic receptor radioligand binding (ligand: prazosin); type: cell membranes, Wistar, Submaxillary gland, Membrane; conditions: Not Active = under 50% inhibition at 10 µM
T1 sequence (P43140 whole entry): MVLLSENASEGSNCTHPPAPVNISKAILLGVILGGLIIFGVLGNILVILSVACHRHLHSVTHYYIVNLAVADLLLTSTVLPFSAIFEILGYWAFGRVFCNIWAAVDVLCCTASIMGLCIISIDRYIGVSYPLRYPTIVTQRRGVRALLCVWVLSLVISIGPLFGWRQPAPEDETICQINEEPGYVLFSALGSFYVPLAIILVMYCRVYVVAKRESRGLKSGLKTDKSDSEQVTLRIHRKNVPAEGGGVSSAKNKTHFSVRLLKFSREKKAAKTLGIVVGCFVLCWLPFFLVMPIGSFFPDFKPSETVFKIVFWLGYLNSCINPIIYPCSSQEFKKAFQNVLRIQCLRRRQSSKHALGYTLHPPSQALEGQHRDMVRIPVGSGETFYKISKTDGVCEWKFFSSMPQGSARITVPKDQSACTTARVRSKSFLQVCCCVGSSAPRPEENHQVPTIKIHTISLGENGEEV

[2] = molecular target: T2, Alpha-1D adrenergic receptor (Homo sapiens, UniProt P25100); type: cell membranes, HEK293, Membrane; also: in other assays of this panel Not Active means under 50% inhibition at 10 µM
T2 sequence (P25100 whole entry): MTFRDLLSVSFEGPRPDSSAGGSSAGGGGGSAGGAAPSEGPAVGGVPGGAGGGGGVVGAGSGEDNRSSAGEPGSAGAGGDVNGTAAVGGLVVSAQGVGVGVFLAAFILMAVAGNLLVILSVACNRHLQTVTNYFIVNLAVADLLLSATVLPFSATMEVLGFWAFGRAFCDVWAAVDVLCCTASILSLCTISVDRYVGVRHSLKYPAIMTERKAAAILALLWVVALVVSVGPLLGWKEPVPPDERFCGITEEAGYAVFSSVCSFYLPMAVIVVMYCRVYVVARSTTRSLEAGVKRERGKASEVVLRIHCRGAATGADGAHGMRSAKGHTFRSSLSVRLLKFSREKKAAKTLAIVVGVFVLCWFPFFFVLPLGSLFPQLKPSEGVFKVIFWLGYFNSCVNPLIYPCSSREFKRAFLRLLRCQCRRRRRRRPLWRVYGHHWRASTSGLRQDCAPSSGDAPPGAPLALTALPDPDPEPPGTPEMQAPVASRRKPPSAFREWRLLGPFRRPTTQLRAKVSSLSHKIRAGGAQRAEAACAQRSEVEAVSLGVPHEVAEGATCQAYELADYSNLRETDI

[3] = DRUGMATRIX: ATPase, Na+/K+ enzyme inhibition (substrate: ATP); type: tissue-based, Sus scrofa, Heart; conditions: Not Active = under 50% inhibition at 10 µM
[4] = DRUGMATRIX: beta-Lactamase enzyme inhibition (substrate: Nitrocefin); parameters: species or system Bacillus cereus; conditions: Not Active = under 50% inhibition at 10 µM
[5] = DRUGMATRIX: Calcium Channel Type L, Benzothiazepine radioligand binding (ligand: [3H] Diltiazem); type: cell membranes, Rattus norvegicus, Wistar, Brain, Membrane; conditions: Not Active = under 50% inhibition at 10 µM
Vasopressin V1a receptor = Vasopressin V1a receptor (Homo sapiens, UniProt P37288); type: cell membranes, Membrane; conditions: hek293; also: in other assays of this panel Not Active means under 50% inhibition at 10 µM
[6] = molecular target: C-C chemokine receptor type 5 (Homo sapiens, UniProt P51681); type: cell membranes, Membrane; conditions: hek293; also: in other assays of this panel Not Active means under 50% inhibition at 10 µM
[7] = molecular target: Sodium-dependent dopamine transporter (Homo sapiens, UniProt Q01959); test: DRUGMATRIX: Dopamine Transporter radioligand binding (ligand: [125I] RTI-55); type: cell membranes, CHO-K1, Membrane; conditions: Not Active = under 50% inhibition at 10 µM
Histamine H2 receptor = Histamine H2 receptor (Homo sapiens, UniProt P25021); type: cell membranes, CHO-K1, Membrane; conditions: cho-k1; also: in other assays of this panel Not Active means under 50% inhibition at 10 µM
[8] = molecular target: cGMP-specific 3',5'-cyclic phosphodiesterase (Homo sapiens, UniProt O76074); test: DRUGMATRIX: Phosphodiesterase PDE5 enzyme inhibition (substrate: [3H]cGMP + cGMP); type: tissue-based, Platelet; conditions: platelet; Not Active = under 50% inhibition at 10 µM
Cathepsin G = molecular target: T3, Cathepsin G (Homo sapiens, UniProt P08311); type: tissue-based; conditions: neutrophil
T3 sequence (P08311 whole entry): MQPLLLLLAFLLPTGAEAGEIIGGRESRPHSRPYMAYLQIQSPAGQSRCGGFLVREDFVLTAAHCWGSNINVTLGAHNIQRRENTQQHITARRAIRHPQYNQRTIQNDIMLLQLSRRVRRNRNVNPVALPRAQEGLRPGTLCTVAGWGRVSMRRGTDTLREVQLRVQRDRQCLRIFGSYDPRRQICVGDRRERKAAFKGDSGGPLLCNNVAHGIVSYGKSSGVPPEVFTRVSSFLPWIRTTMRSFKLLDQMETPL

[9] = molecular target: Protein kinase C alpha type (Homo sapiens, UniProt P17252); type: cell-based; conditions: sf9
[10] = molecular target: Tyrosine-protein kinase Fyn (Homo sapiens, UniProt P06241); test: biochemical; type: cell-based, Insect cells
[11] = molecular target: T4, 5-hydroxytryptamine receptor 1A (Rattus norvegicus, UniProt P19327); type: cell membranes, CHO-K1, Membrane; conditions: for Ki: read-out: Ki
T4 sequence (P19327 whole entry): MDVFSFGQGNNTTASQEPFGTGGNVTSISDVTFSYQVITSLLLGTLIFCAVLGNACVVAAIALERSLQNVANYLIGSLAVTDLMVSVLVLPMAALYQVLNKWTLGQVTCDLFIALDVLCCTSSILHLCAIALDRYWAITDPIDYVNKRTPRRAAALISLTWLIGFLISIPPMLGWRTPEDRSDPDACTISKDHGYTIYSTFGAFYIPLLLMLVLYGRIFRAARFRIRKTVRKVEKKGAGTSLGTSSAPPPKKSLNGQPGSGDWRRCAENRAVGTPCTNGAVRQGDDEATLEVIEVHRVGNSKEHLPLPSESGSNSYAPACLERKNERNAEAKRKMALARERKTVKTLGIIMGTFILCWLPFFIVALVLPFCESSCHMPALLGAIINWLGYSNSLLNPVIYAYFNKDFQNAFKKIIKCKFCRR

Sodium-dependent dopamine transporter, sequence (Q01959 whole entry): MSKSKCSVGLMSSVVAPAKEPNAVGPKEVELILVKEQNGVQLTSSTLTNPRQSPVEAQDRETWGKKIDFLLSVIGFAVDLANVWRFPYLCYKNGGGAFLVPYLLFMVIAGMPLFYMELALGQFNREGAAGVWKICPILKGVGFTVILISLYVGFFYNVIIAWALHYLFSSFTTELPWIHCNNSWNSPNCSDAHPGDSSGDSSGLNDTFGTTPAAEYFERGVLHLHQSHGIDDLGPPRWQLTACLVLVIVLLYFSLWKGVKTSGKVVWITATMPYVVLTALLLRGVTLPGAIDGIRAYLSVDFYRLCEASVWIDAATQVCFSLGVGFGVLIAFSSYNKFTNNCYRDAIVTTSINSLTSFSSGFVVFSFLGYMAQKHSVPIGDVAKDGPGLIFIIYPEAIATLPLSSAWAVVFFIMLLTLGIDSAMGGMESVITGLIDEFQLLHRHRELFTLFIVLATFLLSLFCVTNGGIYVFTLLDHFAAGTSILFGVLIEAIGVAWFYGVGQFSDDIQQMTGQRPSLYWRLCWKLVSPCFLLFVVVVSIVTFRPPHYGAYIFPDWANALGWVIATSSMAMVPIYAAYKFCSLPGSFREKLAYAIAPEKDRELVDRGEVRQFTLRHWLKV
C-C chemokine receptor type 5, sequence (P51681 whole entry): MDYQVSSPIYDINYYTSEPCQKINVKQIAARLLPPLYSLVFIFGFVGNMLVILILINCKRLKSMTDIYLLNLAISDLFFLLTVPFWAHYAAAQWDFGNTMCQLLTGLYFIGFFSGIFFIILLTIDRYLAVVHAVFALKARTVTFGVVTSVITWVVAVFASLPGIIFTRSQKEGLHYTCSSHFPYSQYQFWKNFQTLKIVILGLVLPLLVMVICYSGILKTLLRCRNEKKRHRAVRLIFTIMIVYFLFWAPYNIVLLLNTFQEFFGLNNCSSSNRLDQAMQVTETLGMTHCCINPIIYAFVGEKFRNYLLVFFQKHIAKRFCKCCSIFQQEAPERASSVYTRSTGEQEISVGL
Tyrosine-protein kinase Fyn, sequence (P06241 whole entry): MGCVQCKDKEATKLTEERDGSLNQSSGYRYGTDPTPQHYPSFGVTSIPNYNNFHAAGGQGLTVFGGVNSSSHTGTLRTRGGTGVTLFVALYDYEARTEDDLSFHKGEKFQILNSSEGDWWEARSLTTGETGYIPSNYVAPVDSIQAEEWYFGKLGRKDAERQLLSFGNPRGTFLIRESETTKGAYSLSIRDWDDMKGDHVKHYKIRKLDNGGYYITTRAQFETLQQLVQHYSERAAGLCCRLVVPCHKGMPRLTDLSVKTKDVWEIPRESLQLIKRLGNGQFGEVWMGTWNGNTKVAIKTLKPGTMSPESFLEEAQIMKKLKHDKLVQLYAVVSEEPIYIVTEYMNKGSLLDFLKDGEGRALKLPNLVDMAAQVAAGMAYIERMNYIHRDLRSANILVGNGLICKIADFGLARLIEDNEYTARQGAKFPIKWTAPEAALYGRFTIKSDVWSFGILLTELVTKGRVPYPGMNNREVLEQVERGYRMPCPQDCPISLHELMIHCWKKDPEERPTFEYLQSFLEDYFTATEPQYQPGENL
Histamine H2 receptor, sequence (P25021 whole entry): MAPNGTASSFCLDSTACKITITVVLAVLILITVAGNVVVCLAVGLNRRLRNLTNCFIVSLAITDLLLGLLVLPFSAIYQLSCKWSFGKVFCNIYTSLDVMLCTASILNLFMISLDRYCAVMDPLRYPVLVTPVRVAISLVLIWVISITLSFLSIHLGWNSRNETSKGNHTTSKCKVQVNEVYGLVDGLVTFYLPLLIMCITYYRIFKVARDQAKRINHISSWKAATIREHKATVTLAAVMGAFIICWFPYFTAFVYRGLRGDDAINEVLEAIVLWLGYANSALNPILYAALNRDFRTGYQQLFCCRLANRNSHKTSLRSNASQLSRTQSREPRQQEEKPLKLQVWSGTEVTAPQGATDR
Vasopressin V1a receptor, sequence (P37288 whole entry): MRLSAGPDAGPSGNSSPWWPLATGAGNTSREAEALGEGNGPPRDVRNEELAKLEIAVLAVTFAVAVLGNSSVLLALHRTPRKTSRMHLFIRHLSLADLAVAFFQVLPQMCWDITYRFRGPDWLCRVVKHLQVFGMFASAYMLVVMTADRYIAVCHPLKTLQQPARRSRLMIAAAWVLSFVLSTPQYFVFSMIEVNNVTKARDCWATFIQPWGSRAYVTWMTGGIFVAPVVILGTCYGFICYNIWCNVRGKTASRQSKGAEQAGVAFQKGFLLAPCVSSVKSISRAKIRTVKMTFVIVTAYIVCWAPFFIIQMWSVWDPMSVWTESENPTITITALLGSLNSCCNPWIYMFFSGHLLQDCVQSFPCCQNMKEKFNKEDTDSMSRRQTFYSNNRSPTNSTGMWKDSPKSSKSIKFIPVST

SMILES	IC50 [1]	IC50 ([2]; hek293)	IC50 [3]	Ki [3]	IC50 [4]	Ki [4]	IC50 [5]	Ki [5]	IC50 (Vasopressin V1a receptor)	IC50 [6]	IC50 ([7]; cho-k1)	IC50 (Histamine H2 receptor)	IC50 [8]	IC50 (Cathepsin G)	IC50 [9]	IC50 ([10]; insect cells)	IC50 ([11]; cho-k1)	IC50 ([11]; read-out: IC50)	Ki [11]	further results
COc1ccc2cc(CC(=O)O)ccc2c1	Not Active	Not Active	Not Active	Not Active	Not Active	Not Active	Not Active	Not Active	Not Active	Not Active	Not Active	Not Active	Not Active	Not Active	Not Active	Not Active	Not Active			
CC(C)NC[C@H](O)COc1cccc2[nH]ccc12	Not Active	Not Active	Not Active	Not Active	Not Active	Not Active	Not Active	Not Active	Not Active	Not Active	Not Active	Not Active	Not Active	Not Active	Not Active	Not Active		28 nM	16 nM	
c1ccc2c(c1)cc1ccc3cccc4ccc2c1c34	Not Active	Not Active	Not Active	Not Active			Not Active	Not Active	Not Active	Not Active	Not Active	Not Active	Not Active	Not Active	Not Active		Not Active			IC50 ([4]; read-out: IC50): 20700 nM; IC50 ([10]; read-out: IC50): 26200 nM
CC=CC(=O)N(CC)c1ccccc1C	Not Active	Not Active	Not Active	Not Active	Not Active	Not Active	Not Active	Not Active	Not Active	Not Active	Not Active	Not Active	Not Active	Not Active	Not Active	Not Active	Not Active			
C=C1C(=O)O[C@@H]2C3O[C@]3(C)CC/C=C(\C)CC[C@@H]12 (stereo not given in full)	Not Active	Not Active	Not Active	Not Active	Not Active	Not Active	Not Active	Not Active	Not Active	Not Active	Not Active	Not Active	Not Active	Not Active	Not Active	Not Active	Not Active			
CC(/C=C1\SC(=S)N(CC(=O)O)C1=O)=C\c1ccccc1	Not Active	Not Active	Not Active	Not Active	Not Active	Not Active	Not Active	Not Active	Not Active	Not Active	Not Active	Not Active	Not Active	Not Active	Not Active	Not Active	Not Active			
CCCCCCCCCc1ccc(O)cc1 [4-NONYLPHENOL]	Not Active	Not Active	Not Active	Not Active	Not Active	Not Active	Not Active	Not Active	Not Active	Not Active		Not Active	Not Active	Not Active	Not Active	Not Active	Not Active			IC50 ([7]; read-out: IC50): 1650 nM; Ki ([7]; read-out: Ki): 1310 nM
Oc1c(Cl)cc(Cl)cc1Sc1cc(Cl)cc(Cl)c1O [BITHIONOL]	Not Active	Not Active			Not Active	Not Active	Not Active	Not Active	Not Active	Not Active		Not Active	Not Active	Not Active	Not Active	Not Active		5510 nM	3150 nM	IC50 ([3]; read-out: IC50): 5020 nM
Cc1ccccc1N1CCN(CCc2nnc3n2CCCC3)CC1 [DAPIPRAZOLE]			Not Active	Not Active	Not Active	Not Active	Not Active	Not Active	Not Active	Not Active	Not Active	Not Active	Not Active	Not Active	Not Active	Not Active		2060 nM	1180 nM	IC50 ([2]; read-out: IC50): 8.31 nM; Ki ([2]; read-out: Ki): 4.09 nM
Fc1ccc([C@@H]2CCNC[C@H]2COc2ccc3c(c2)OCO3)cc1 [PAROXETINE]	Not Active	Not Active	Not Active	Not Active	Not Active	Not Active			Not Active	Not Active		Not Active	Not Active	Not Active	Not Active	Not Active	Not Active			IC50 ([5]; read-out: IC50): 373 nM; Ki ([5]; read-out: Ki): 331 nM
